Assays:
[1] = target: JAK1 (recombinant purified GST-tagged catalytic domain) (Homo sapiens (Human), UniProt P23458); experiment: Jak Biochemical HTRF Assay (JAK1); conditions: [ATP] 31.8 μM
How it was run: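 Compounds in DMSO were pre-equilibrated with enzyme and biotinylated peptide, then ATP was added and the reaction proceeded 120 min at room temperature. EDTA-based stop buffer with detection reagents was added, and after 60 min the time-resolved FRET ratio was read. IC50s came from 4-parameter dose–response fits.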

[2] = target: JAK2 (recombinant purified GST-tagged catalytic domain) (Homo sapiens (Human), UniProt O60674); experiment: Jak Biochemical HTRF Assay (JAK2); conditions: [ATP] 8.5 μM
Chain of JAK2 (recombinant purified GST-tagged catalytic domain) (O60674 849-1124): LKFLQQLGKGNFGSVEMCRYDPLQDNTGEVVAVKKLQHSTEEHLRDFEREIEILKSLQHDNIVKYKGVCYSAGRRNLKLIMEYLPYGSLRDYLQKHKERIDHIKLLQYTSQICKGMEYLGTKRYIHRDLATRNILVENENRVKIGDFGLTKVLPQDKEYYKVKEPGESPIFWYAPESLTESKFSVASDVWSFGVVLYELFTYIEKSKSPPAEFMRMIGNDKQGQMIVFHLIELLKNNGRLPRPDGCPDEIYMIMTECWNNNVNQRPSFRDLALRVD

Chain of JAK1 (recombinant purified GST-tagged catalytic domain) (P23458 875-1153): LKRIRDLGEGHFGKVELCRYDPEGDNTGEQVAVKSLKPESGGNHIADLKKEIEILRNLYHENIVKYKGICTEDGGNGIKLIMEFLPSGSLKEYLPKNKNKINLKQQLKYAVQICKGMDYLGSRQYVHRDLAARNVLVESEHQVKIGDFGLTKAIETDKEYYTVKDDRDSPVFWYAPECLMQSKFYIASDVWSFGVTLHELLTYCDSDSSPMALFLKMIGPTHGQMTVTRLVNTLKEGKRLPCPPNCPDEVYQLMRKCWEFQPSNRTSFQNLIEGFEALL

Row | Compound | IC50 [1] [nM] | IC50 [2] [nM]
1 | N#CCC1(n2nc(Nc3ccc(C(F)(F)F)cc3)c3c(=O)[nH]ccc32)CCC(N2CC(F)C2)CC1 (single isomer, unassigned) [Example 18-1, 2-(4-(3-fluoroazetidin-1-yl)-1-(4-oxo-3-((4-(trifluoromethyl)phenyl)amino)-4,5-dihydro-1H-pyrazolo[4,3-c]pyridin-1-yl)cyclohexyl)acetonitrile] | 0.26 | 0.94
2 | N#CCC1(n2nc(Nc3ccc(C(F)(F)F)cc3)c3c(=O)[nH]ccc32)CCC(N2CC(F)C2)CC1 (single isomer, unassigned) [Example 18-2, 2-(4-(3-fluoroazetidin-1-yl)-1-(4-oxo-3-((4-(trifluoromethyl)phenyl)amino)-4,5-dihydro-1H-pyrazolo[4,3-c]pyridin-1-yl)cyclohexyl)acetonitrile] | 6.8 | 64
3 | Cc1cc(Nc2nn([C@]3(CC#N)CC[C@@H](C(=O)OC(C)(C)C)OC3)c3cc[nH]c(=O)c23)ccc1C(=O)N1CCOCC1C (single isomer, unassigned) [Example 20-8, (2S,5S)-tert-butyl 5-(cyanomethyl)-5-(3-((3-methyl-4-((S or R)-3-methylmorpholine-4-carbonyl)phenyl)amino)-4-oxo-4,5-dihydro-1H-pyrazolo[4,3-c]pyridin-1-yl)tetrahydro-2H-pyran-2-carboxylate] | 0.15 | 0.16
4 | Cc1cc(Nc2nn([C@]3(CC#N)CC[C@@H](C(=O)OC(C)(C)C)OC3)c3cc[nH]c(=O)c23)ccc1C(=O)N1CCOCC1C (single isomer, unassigned) [Example 20-9, (2S,5S)-tert-butyl 5-(cyanomethyl)-5-(3-((3-methyl-4-((S or R)-3-methylmorpholine-4-carbonyl)phenyl)amino)-4-oxo-4,5-dihydro-1H-pyrazolo[4,3-c]pyridin-1-yl)tetrahydro-2H-pyran-2-carboxylate] | 0.14 | 0.17
5 | Cc1cc(Nc2nn([C@]3(CC#N)CC[C@@H](C(=O)OC(C)(C)C)OC3)c3cc[nH]c(=O)c23)ccc1C(=O)N1CCOC(C)C1 (single isomer, unassigned) [Example 20-10, (2S,5S)-tert-butyl 5-(cyanomethyl)-5-(3-((3-methyl-4-((S or R)-2-methylmorpholine-4-carbonyl)phenyl)amino)-4-oxo-4,5-dihydro-1H-pyrazolo[4,3-c]pyridin-1-yl)tetrahydro-2H-pyran-2-carboxylate] | 0.21 | 0.31
6 | Cc1cc(Nc2nn([C@]3(CC#N)CC[C@@H](C(=O)OC(C)(C)C)OC3)c3cc[nH]c(=O)c23)ccc1C(=O)N1CCOC(C)C1 (single isomer, unassigned) [Example 20-11, (2S,5S)-tert-butyl 5-(cyanomethyl)-5-(3-((3-methyl-4-((S or R)-2-methylmorpholine-4-carbonyl)phenyl)amino)-4-oxo-4,5-dihydro-1H-pyrazolo[4,3-c]pyridin-1-yl)tetrahydro-2H-pyran-2-carboxylate] | 0.23 | 0.35
7 | Cc1cc(Nc2nn([C@]3(CC#N)CC[C@@H](C(=O)OC(C)(C)C)OC3)c3cc[nH]c(=O)c23)ccc1C(=O)N1CC(C)OC(C)C1 (single isomer, unassigned) [Example 20-12, (2S,5S)-tert-butyl 5-(cyanomethyl)-5-(3-((4-((2S,6S or 2R,6R)-2,6-dimethylmorpholine-4-carbonyl)-3-methylphenyl)amino)-4-oxo-4,5-dihydro-1H-pyrazolo[4,3-c]pyridin-1-yl)tetrahydro-2H-pyran-2-carboxylate] | 0.25 | 0.45
8 | Cc1cc(Nc2nn([C@]3(CC#N)CC[C@@H](C(=O)OC(C)(C)C)OC3)c3cc[nH]c(=O)c23)ccc1C(=O)N1CC(C)OC(C)C1 (single isomer, unassigned) [Example 20-13, (2S,5S)-tert-butyl 5-(cyanomethyl)-5-(3-((4-((2S,6S or 2R,6R)-2,6-dimethylmorpholine-4-carbonyl)-3-methylphenyl)amino)-4-oxo-4,5-dihydro-1H-pyrazolo[4,3-c]pyridin-1-yl)tetrahydro-2H-pyran-2-carboxylate] | 0.22 | 0.26
9 | CO[C@H](c1ccc(Nc2nn([C@]3(CC#N)CC[C@@H](C(=O)OC(C)(C)C)OC3)c3cc[nH]c(=O)c23)cc1)C(F)(F)F (single isomer, unassigned) [Example 21-7, (2S,5S)-tert-butyl 5-(cyanomethyl)-5-(4-oxo-3-((4-((R or S)-2,2,2-trifluoro-1-methoxyethyl)phenyl)amino)-4,5-dihydro-1H-pyrazolo[4,3-c]pyridin-1-yl)tetrahydro-2H-pyran-2-carboxylate] | 0.41 | 0.9
10 | CO[C@@H](c1ccc(Nc2nn([C@]3(CC#N)CC[C@@H](C(=O)OC(C)(C)C)OC3)c3cc[nH]c(=O)c23)cc1)C(F)(F)F (single isomer, unassigned) [Example 21-8, (2S,5S)-tert-butyl 5-(cyanomethyl)-5-(4-oxo-3-((4-((S or R)-2,2,2-trifluoro-1-methoxyethyl)phenyl)amino)-4,5-dihydro-1H-pyrazolo[4,3-c]pyridin-1-yl)tetrahydro-2H-pyran-2-carboxylate] | 0.38 | 1.03
11 | CO[C@H](c1ccc(Nc2nn(C3(CC#N)CCN(C(=O)OC(C)(C)C)CC3)c3cc[nH]c(=O)c23)cc1)C(F)(F)F (single isomer, unassigned) [Example 21-9, tert-butyl 4-(cyanomethyl)-4-[4-oxo-3-({4-[(1R or 1S)-2,2,2-trifluoro-1-methoxyethyl]phenyl}amino)-4,5-dihydro-1H-pyrazolo[4,3-c]pyridin-1-yl]piperidine-1-carboxylate] | 1.11 | 1.96
12 | CO[C@@H](c1ccc(Nc2nn(C3(CC#N)CCN(C(=O)OC(C)(C)C)CC3)c3cc[nH]c(=O)c23)cc1)C(F)(F)F (single isomer, unassigned) [Example 21-10, tert-butyl 4-(cyanomethyl)-4-[4-oxo-3-({4-[(1S or 1R)-2,2,2-trifluoro-1-methoxyethyl]phenyl}amino)-4,5-dihydro-1H-pyrazolo[4,3-c]pyridin-1-yl]piperidine-1-carboxylate] | 0.97 | 1.95
13 | CC(C)(C)OC(=O)N1CCC(CC#N)(n2nc(Nc3ccc([C@]4(C(F)(F)F)CCCCN4)cc3)c3c(=O)[nH]ccc32)CC1 (single isomer, unassigned) [Example 21-16, (S or R)-tert-butyl 4-(cyanomethyl)-4-(4-oxo-3-(4-(2-(trifluoromethyl)piperidin-2-yl)phenylamino)-4,5-dihydropyrazolo[4,3-c]pyridin-1-yl)piperidine-1-carboxylate] | 0.71 | 0.64
14 | CC(C)(C)OC(=O)N1CCC(CC#N)(n2nc(Nc3ccc([C@@]4(C(F)(F)F)CCCCN4)cc3)c3c(=O)[nH]ccc32)CC1 (single isomer, unassigned) [Example 21-17, (R or S)-tert-butyl 4-(cyanomethyl)-4-(4-oxo-3-(4-(2-(trifluoromethyl)piperidin-2-yl)phenylamino)-4,5-dihydropyrazolo[4,3-c]pyridin-1-yl)piperidine-1-carboxylate] | 0.63 | 0.58
